Experimental data published in patent US6714815B2, “Method for the iontophoretic non-invasive determination of the in vivo concentration level of an inorganic or organic substance” (The Regents of the University of California, priority 1988, dated 2004).
Counter-ions that a name gives are not always drawn. Values belong to the compound of their own block, whether it stands above or below them.

Tests used:
[1] = In-vitro iontophoretic delivery of P.S.O.S. in the diffusion cell; assay type: in vitro ADME
Protocol: (b) P.S.O.S. (Potassium Sucrose Octa Sulfate) P.S.O.S., 0.6 ml of 1.5 mg/ml solution in a boric buffer is placed in chamber 16A and boric acid buffer alone is placed in chamber 16C of FIGS. 1, 2 or 3. Using a direct current of 0.5 mA (0.65 mA/cm^2) transport of P.S.O.S is observed up to 5 μg/hr.

[2] = Protocol: Drugs—Clonidine HCl (Sigma Chemical Co., St. Louis, Mo.); Clonidine-HCl (phenyl-4-^3H) of specific activity 90 mCi/mg (Amersham, Arlington Heights, Ill.). […] The non-labelled drugs were dissolved in deionized water to form solutions of 1 mg/ml, with enough labelled drug to achieve an activity of approximately […].
Skin (13)—Full-thickness skin, freshly excised from 11-15 week old female hairless mice (strain Skh:HR-1, Simonsen Laboratory, Gilroy, Calif.).
Testing of the Modeling Cell—The diffusion cell 10 was tested in three ways:
(1) Leakage tests (without current) using dye and silicone rubber than skin; (2) leakage tests using dye and skin (without current); and (3) iontophoretic tests using the drug solutions and skin (with and without current). Procedures (1) and (2) were evaluated by visually inspecting the cell. For procedure (3), 0.6 ml of labelled drug solution was placed in chamber 16A, 0.6 ml of buffered saline was pipetted into chamber 16C, and a constant current of 0.63 mA/cm^2 (with the voltage limited at 9 V) was imposed between the electrodes in the two chambers. The activity of the solutions in chambers 16A and 16C was determined before and after iontophoresis. The activity of the skin 13 and of the samples taken from the receptor chamber was determined post-experimentally. Each experiment lasts approximately 24 hours, ±2 hours, with samples collected hourly. Receptor fluid 17 was magnetically stirred (27), and the collection flow rate was 10 ml/hr. Each procedure was, repeated three times.

[3] = forearm of a person; compared with in vitro case
[4] = remark: listed apart in the source
Protocol: FIG. 5—The iontophoretic sampling was extended to another neutral bioactive molecule: ethanol.
An identical protocol to that employed for glucose experiments is followed. The only difference being in the concentration of ethanol in the dermal side. A concentration of 17 mM was used as this corresponds to a 0.08% solution, the maximum blood alcohol level legally allowed.
Radioactivity was again used to measure the extracted ethanol. The dermal side using radioactive ethanol, [1-14C]

[5] = female, Skh:HR-1 hairless, mouse, 1 mg/ml

Compound: O=S(=O)([O-])OC[C@H]1O[C@@](COS(=O)(=O)[O-])(O[C@H]2O[C@H](COS(=O)(=O)[O-])[C@@H](OS(=O)(=O)[O-])[C@H](OS(=O)(=O)[O-])[C@H]2OS(=O)(=O)[O-])[C@@H](OS(=O)(=O)[O-])[C@@H]1OS(=O)(=O)[O-].[K+].[K+].[K+].[K+].[K+].[K+].[K+].[K+] [P.S.O.S, Potassium Sucrose Octa Sulfate]
- transport of P.S.O.S ([1]; direct current of 0.5 mA (0.65 mA/cm^2), 0.6 ml of 1.5 mg/ml in boric buffer in chamber 16A): up to 5 μg/hr
- P.S.O.S transferred ([1]; same experimental configuration, printed 'with a current'): only a few nanograms

- drug in the buffered saline of chamber 16C [2]: no drug was found
- mean rate of diffusion into the receptor phase (passive transport rate) [2, 5]: 0.05 μg/cm^2/hr
- rate of penetration through the skin [2, 5]: 15.0 μg/cm^2/hr
- labelled drug detected in the buffered saline of chamber 16C ([2]; female, Skh:HR-1 hairless, mouse, 20 h, 1 mg/ml): 5 µg
Compound: Clc1cccc(Cl)c1N=C1NCCN1 [clonidine-HCl, Clonidine HCl]
- amount of clonidine sampled [3]: comparable to that observed in the in vitro case

- passive flux ([4]; ethanol 17 mM on the dermal side, no current): large passive flux
- metabolism during iontophoretic sampling ([4]; preliminary experiments): does not seem to be metabolized
Compound: CCO [ethanol]
- amount of ethanol extracted iontophoretically ([4]; ethanol 17 mM on the dermal side, compared with glucose): far greater than that obtained with glucose
- cathodal versus anodal concentration ([4]; preliminary experiments): cathodal concentration is greater than anodal
